Biological target: T1, human Orexin 1 receptor (Homo sapiens, UniProt O43613)
T1 construct: stably expressing the full-length human Orexin 1 receptor; expressed in transfected cells; host or cells: CHO-K1 (CHO-K1/hOX1), co-expressing aequorin
T1 sequence (O43613 1-425): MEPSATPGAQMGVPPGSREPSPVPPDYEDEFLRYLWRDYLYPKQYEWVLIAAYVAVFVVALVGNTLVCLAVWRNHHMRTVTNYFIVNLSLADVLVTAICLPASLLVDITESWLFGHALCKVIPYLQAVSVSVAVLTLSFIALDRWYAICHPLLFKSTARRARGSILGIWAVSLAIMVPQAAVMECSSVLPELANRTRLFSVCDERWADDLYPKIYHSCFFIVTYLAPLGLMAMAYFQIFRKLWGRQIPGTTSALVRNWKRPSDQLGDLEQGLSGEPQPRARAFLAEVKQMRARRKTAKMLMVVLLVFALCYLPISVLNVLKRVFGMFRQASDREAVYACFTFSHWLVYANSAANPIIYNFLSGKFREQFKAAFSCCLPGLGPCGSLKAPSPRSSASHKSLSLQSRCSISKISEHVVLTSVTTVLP
Assay: Assay A: In vitro testing of OX1R potency: OX1R IP1 (HTRF, CHO-K1/hOX1 cells, Orexin A as agonist)
Format: cell-based
Settings: OX1R Kb at 0.5 nM Orexin A

SMILES	OX2R Kb/OX1R Kb
CCN(C(=O)c1ccccc1-c1cnc(OC)nc1)[C@@H](C)COc1ccc(C(F)(F)F)cn1 [Example 79]	66
CCN(C(=O)c1ccccc1-c1ccn(C)c(=O)c1)[C@@H](C)COc1ccc(C(F)(F)F)cn1 [Example 81]	575
CCN(C(=O)c1ccccc1-c1cnnc(C)c1)[C@@H](C)COc1ccc(C(F)(F)F)cn1 [Example 84]	150
CCN(C(=O)c1ccccc1-c1cnc(C)nc1)[C@@H](C)COc1ccc(C(F)(F)F)cn1 [Example 85]	68
CCN(C(=O)c1cc(C#N)ccc1-n1nccn1)[C@@H](C)COc1ccc(C(F)(F)F)cn1 [Example 95]	71
CCN(C(=O)c1ccccc1-c1ccc(=O)n(C)c1)[C@@H](C)COc1ccc(C(F)(F)F)cn1 [Example 96]	217

Same assay, conditions: OX1R Kb at 50 nM Orexin A

SMILES	OX2R Kb/OX1R Kb
CCN(C(=O)c1ccccc1-c1cnc(OC)nc1)[C@@H](C)COc1ccc(C(F)(F)F)cn1 [Example 79]	58
CCN(C(=O)c1cc(C#N)ccc1-n1nccn1)[C@@H](C)COc1ccc(C(F)(F)F)cn1 [Example 95]	74

Same assay, conditions: Orexin A 0.5 nM; read-out: OX1R Kb (Orexin A concentration used)

SMILES	Kb [nM]
CCN(C(=O)c1ccccc1-c1cnc(OC)nc1)[C@@H](C)COc1ccc(C(F)(F)F)cn1 [Example 79]	1.4
CCN(C(=O)c1ccccc1-c1ccn(C)c(=O)c1)[C@@H](C)COc1ccc(C(F)(F)F)cn1 [Example 81]	2.9
CCN(C(=O)c1ccccc1-c1cnnc(C)c1)[C@@H](C)COc1ccc(C(F)(F)F)cn1 [Example 84]	8.6
CCN(C(=O)c1ccccc1-c1cnc(C)nc1)[C@@H](C)COc1ccc(C(F)(F)F)cn1 [Example 85]	8.6
CCN(C(=O)c1cc(C#N)ccc1-n1nccn1)[C@@H](C)COc1ccc(C(F)(F)F)cn1 [Example 95]	0.52
CCN(C(=O)c1ccccc1-c1ccc(=O)n(C)c1)[C@@H](C)COc1ccc(C(F)(F)F)cn1 [Example 96]	7.4

Same assay, conditions: Orexin A 50 nM; read-out: OX1R Kb (Orexin A concentration used)

SMILES	Kb [nM]
CCN(C(=O)c1ccccc1-c1cnc(OC)nc1)[C@@H](C)COc1ccc(C(F)(F)F)cn1 [Example 79]	1.6
CCN(C(=O)c1cc(C#N)ccc1-n1nccn1)[C@@H](C)COc1ccc(C(F)(F)F)cn1 [Example 95]	0.5

Tested on: not listed separately
Assay: Assay C: Metabolic stability in human liver microsomes (Human MST)
Format: in vitro ADME
Settings: pooled human liver microsomes, pH 7.6; human liver microsomes 1 mg/mL, compound 1 μM, 37° C., NADPH; read-out: Human MST t1/2
Procedure: C. Assessment of Metabolic Stability in Human Liver Microsomes (Human MST)
The metabolic stability of the compounds according to the invention may be investigated as follows:
The metabolic degradation of the test compound is assayed at 37° C. with pooled human liver microsomes. The final incubation volume of 100 μL per time point contains TRIS buffer pH 7.6 at room temperature (0.1 M), MgCl2 (5 mM), microsomal protein (1 mg/mL) and the test compound at a final concentration of 1 μM. Following a short pre-incubation period at 37° C., the reactions are initiated by addition of beta-nicotinamide adenine dinucleotide phosphate, reduced form (NADPH, 1 mM), and terminated by transferring an aliquot into solvent after different time points. After centrifugation (10000 g, 5 min), an aliquot of the supernatant is assayed by LC-MS/MS for the amount of parent compound. The half-life (t1/2) is determined by the slope of the semi-logarithmic plot of the concentration-time profile.

SMILES	half-life at 1 μM [min]
CCN(C(=O)c1ccccc1-c1cnc(OC)nc1)[C@@H](C)COc1ccc(C(F)(F)F)cn1 [Example 79]	12
CCN(C(=O)c1ccccc1-c1ccn(C)c(=O)c1)[C@@H](C)COc1ccc(C(F)(F)F)cn1 [Example 81]	39
CCN(C(=O)c1ccccc1-c1cnnc(C)c1)[C@@H](C)COc1ccc(C(F)(F)F)cn1 [Example 84]	11
CCN(C(=O)c1ccccc1-c1cnc(C)nc1)[C@@H](C)COc1ccc(C(F)(F)F)cn1 [Example 85]	17
CCN(C(=O)c1cc(C#N)ccc1-n1nccn1)[C@@H](C)COc1ccc(C(F)(F)F)cn1 [Example 95]	> 130
CCN(C(=O)c1ccccc1-c1ccc(=O)n(C)c1)[C@@H](C)COc1ccc(C(F)(F)F)cn1 [Example 96]	34

Biological target: T2, human orexin 2 receptor (Homo sapiens, UniProt O43614)
T2 construct: stably expressing the full-length human orexin 2 receptor; expressed in transfected cells; host or cells: CHO-K1 (CHO-K1/hOX2), co-expressing aequorin
T2 sequence (O43614 1-444): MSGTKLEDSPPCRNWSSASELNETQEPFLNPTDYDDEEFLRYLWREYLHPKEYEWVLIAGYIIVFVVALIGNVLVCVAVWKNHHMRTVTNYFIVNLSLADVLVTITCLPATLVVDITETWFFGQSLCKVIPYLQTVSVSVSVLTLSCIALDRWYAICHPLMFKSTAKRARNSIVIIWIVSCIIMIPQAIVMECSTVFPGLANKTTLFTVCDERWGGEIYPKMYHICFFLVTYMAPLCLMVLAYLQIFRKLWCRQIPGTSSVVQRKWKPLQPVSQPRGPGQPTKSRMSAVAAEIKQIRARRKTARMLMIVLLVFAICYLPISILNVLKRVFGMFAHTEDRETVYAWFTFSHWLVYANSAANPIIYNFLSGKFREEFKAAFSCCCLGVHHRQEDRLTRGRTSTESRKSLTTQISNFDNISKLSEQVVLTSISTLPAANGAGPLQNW
Assay: Assay B: In vitro testing of OX2R potency: OX2R IP1 (HTRF, CHO-K1/hOX2 cells, Orexin A as agonist)
Format: cell-based
Settings: Orexin A 0.5 nM
Text: Activation of the orexin receptors expressed in cell lines results in an increase in intracellular IP3 concentration. IP1, a downstream metabolite of IP3, accumulates in cells following receptor activation and is stable in the presence of LiCl. Using Homogeneous Time-Resolved Fluorescence technology with Lumi4-Tb cryptate (commercially available from Cisbio Bioassay.) and a suitable fluorescence plate reader. […] Chem. Genomics 2009, 3, 22-32. This technique is used to characterize pharmacological modification of the orexin receptors.
B. In Vitro Testing of OX2R Potency: OX2R IP1
IP1 measurements are performed in CHO-K1 cells stably expressing the full-length human orexin 2 receptor and the aequorin photoprotein. Cells are cultivated in Ham's nutrient mixture F12 medium with 10% fetal calf serum, in a 37° C., 95% humidity and 5% CO2 incubator. The CHO-K1/hOX2 cell mass is expanded to larger cell numbers. The cells are obtained as frozen cells in cryo-vials and stored until use at −150° C. The viability of the cells after thawing is >90%. In preparation for the assay, 24 hours before the assay, the cells are thawed at 37° C. and immediately diluted with cell culture medium. After centrifugation, the cell pellet is resuspended in medium and then distributed into the assay plates with a density of 5000 cells/25 μL per well. The plates are incubated for one hour at room temperature to reduce edge effects before they are incubated for 24 hours at 37° C./5% CO2. Compounds are prepared by a 8-point serial dilution in DMSO and a final dilution step into assay buffer (HBSS with 20 mM HEPES, 0.1% BSA and 50 mM LiCl, pH 7.4) to ensure a final DMSO concentration of 1% in the assay.
On the day of the assay, cells in the plate are washed twice with 60 μL assay buffer (20 μL buffer remained in the wells after washing), followed by adding 5 μL per well of compounds diluted in assay buffer. After 15 minutes of incubation at room temperature 5 μL per well of Orexin A peptide (final concentration: 0.5 nM) dissolved in assay buffer is added to the assay plate. The assay plate is incubated for 60 minutes at 37° C. Then 5 μL per well of Anti-IP1-Cryptate Tb solution and 5 μL per well of IP1-d2 dilution are added to all well of the plate and the plate is incubated for a further 60 minutes light protected at room temperature. The emission at 615 nm and 665 nm (Excitation wavelength: 320 nm) are measured using an EnVision reader (PerkinElmer). The ratio between the emission at 665 nm and 615 is calculated by the reader.
8-point four parametric non-linear curve fitting and determination of IC50 values and Hill slopes is performed using a regular analysis software e.g. AssayExplorer (Accelrys). In order to establish an agonist concentration independent parameter, Kb values are calculated using the following equation: IC50/((2+(A/EC50)n)^1/n−1) (with A=concentration agonist, EC50=EC50 agonist, n=Hill slope agonist) (see P. Leff, I. G. Dougall, Trends Pharmacol. Sci. 1993, 14(4), 110-112).
Kb values from Assay A (OX1R) and Assay B (OX2R) can then provide a selectivity ratio which is independent of the agonist (Orexin A) concentration.

SMILES	Kb [nM]
CCN(C(=O)c1ccccc1-c1cnc(OC)nc1)[C@@H](C)COc1ccc(C(F)(F)F)cn1 [Example 79]	92
CCN(C(=O)c1ccccc1-c1ccn(C)c(=O)c1)[C@@H](C)COc1ccc(C(F)(F)F)cn1 [Example 81]	1670
CCN(C(=O)c1ccccc1-c1cnnc(C)c1)[C@@H](C)COc1ccc(C(F)(F)F)cn1 [Example 84]	1290
CCN(C(=O)c1ccccc1-c1cnc(C)nc1)[C@@H](C)COc1ccc(C(F)(F)F)cn1 [Example 85]	583
CCN(C(=O)c1cc(C#N)ccc1-n1nccn1)[C@@H](C)COc1ccc(C(F)(F)F)cn1 [Example 95]	37
CCN(C(=O)c1ccccc1-c1ccc(=O)n(C)c1)[C@@H](C)COc1ccc(C(F)(F)F)cn1 [Example 96]	1610

Source: US10787432B2, “N-[(pyridyloxy)propanyl]benzamides” (Boehringer Ingelheim International GmbH, priority 2016, dated 2020)
